The supplement of paper PMC11451515

Assays:
Conditions in all cases: 48 h
NOMO1 [1] = test: cell viability relative to DMSO control; higher = less cytotoxic
Procedure, shortened: (§1)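 Viability is expressed as a percentage of DMSO wells within each plate, and cell-free wells serve as background. Seeding densities in the 1536-well plates (5 μl) were 500 cells/well for NOMO1 or SEM leukemia cells and 1000 cells/well for P12-Ichikawa. Each line was adapted for at least four passages in each medium. Library compounds in DMSO were pin-dosed at 47 μM to 0.79 nM (11 points, threefold), and CellTiter-Glo One luminescence was read after 48 h at 37°C.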

P12-Ichikawa [2] = test: as above
Procedure, shortened: as §1

SEM cells = test: as above
Procedure, shortened: as §1

P12-Ichikawa [3] = test: AUC of viability dose-response curve (% viability x log10 dose units); higher = less sensitive
Procedure, shortened: (§2)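 Over 48 h at 37°C, leukemia cells in 1536-well plates (500 or 1000 cells/well), adapted to each medium, received library compounds in DMSO at 11 threefold doses from 47 μM to 0.79 nM. CellTiter-Glo One luminescence, normalised per plate to DMSO and cell-free wells, was fitted by a four-parameter log-logistic function of log10 dose. The area under the curve was then integrated by trapezoidal rule, after scaling curves above full viability and removing those that failed quality control.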

NOMO1 [4] = test: as above
Procedure, shortened: as §2

CC(C)(C#N)c1cc(Cn2cncn2)cc(C(C)(C)C#N)c1
cell viability [%]
Conditions | NOMO1 [1] | P12-Ichikawa [2] | SEM cells
HPLM + 10% dialyzed FBS, 0.000781 µM | – | 120 | 101
HPLM + 10% dialyzed FBS, 0.00234 µM | – | 119 | 92.6
HPLM + 10% dialyzed FBS, 0.00702 µM | – | 117 | 87.4
HPLM + 10% dialyzed FBS, 0.0211 µM | – | 119 | 103
HPLM + 10% dialyzed FBS, 0.0632 µM | – | 117 | 111
HPLM + 10% dialyzed FBS, 0.19 µM | – | 116 | 104
HPLM + 10% dialyzed FBS, 0.569 µM | – | 115 | 21.8
HPLM + 10% dialyzed FBS, 1.71 µM | – | 115 | 112
HPLM + 10% dialyzed FBS, 5.12 µM | – | 113 | 116
HPLM + 10% dialyzed FBS, 15.4 µM | – | 108 | 117
HPLM + 10% dialyzed FBS, 46.1 µM | – | 97 | 113
RPMI 5 mM glucose + 10% FBS, 0.000781 µM | 123 | 130 | 123
RPMI 5 mM glucose + 10% FBS, 0.00234 µM | 106 | 118 | 116
RPMI 5 mM glucose + 10% FBS, 0.00702 µM | 102 | 121 | 115
RPMI 5 mM glucose + 10% FBS, 0.0211 µM | 111 | 129 | 102
RPMI 5 mM glucose + 10% FBS, 0.0632 µM | 109 | 120 | 109
RPMI 5 mM glucose + 10% FBS, 0.19 µM | 106 | 124 | 106
RPMI 5 mM glucose + 10% FBS, 0.569 µM | 127 | 128 | 21.3
RPMI 5 mM glucose + 10% FBS, 1.71 µM | 114 | 131 | 122
RPMI 5 mM glucose + 10% FBS, 5.12 µM | 44.2 | 113 | 126
RPMI 5 mM glucose + 10% FBS, 15.4 µM | 106 | 112 | 125
RPMI 5 mM glucose + 10% FBS, 46.1 µM | 107 | 112 | 111

P12-Ichikawa [3]
Conditions | AUC of viability dose-response curve
HPLM + 10% dialyzed FBS | 466
RPMI 5 mM glucose + 10% FBS | 456
RPMI 5 mM glucose + 10% dialyzed FBS | 442

C[C@@H](Oc1cc(-c2cnn(C3CCNCC3)c2)cnc1N)c1c(Cl)ccc(F)c1Cl
cell viability [%]
Conditions | NOMO1 [1] | P12-Ichikawa [2] | SEM cells
HPLM + 10% dialyzed FBS, 0.000781 µM | – | 118 | 105
HPLM + 10% dialyzed FBS, 0.00234 µM | – | 119 | 121
HPLM + 10% dialyzed FBS, 0.00702 µM | – | 115 | 123
HPLM + 10% dialyzed FBS, 0.0211 µM | – | 118 | 124
HPLM + 10% dialyzed FBS, 0.0632 µM | – | 115 | 121
HPLM + 10% dialyzed FBS, 0.19 µM | – | 120 | 114
HPLM + 10% dialyzed FBS, 0.569 µM | – | 111 | 111
HPLM + 10% dialyzed FBS, 1.71 µM | – | 95.7 | 110
HPLM + 10% dialyzed FBS, 5.12 µM | – | 90.6 | 61.6
HPLM + 10% dialyzed FBS, 15.4 µM | – | 73.5 | 35.1
HPLM + 10% dialyzed FBS, 46.1 µM | – | 18.9 | 23.5
RPMI 5 mM glucose + 10% FBS, 0.000781 µM | 118 | 116 | 81.4
RPMI 5 mM glucose + 10% FBS, 0.00234 µM | 116 | 118 | 78.5
RPMI 5 mM glucose + 10% FBS, 0.00702 µM | 113 | 123 | 85.6
RPMI 5 mM glucose + 10% FBS, 0.0211 µM | 115 | 116 | 83.6
RPMI 5 mM glucose + 10% FBS, 0.0632 µM | 131 | 124 | 82.5
RPMI 5 mM glucose + 10% FBS, 0.19 µM | 129 | 117 | 71.3
RPMI 5 mM glucose + 10% FBS, 0.569 µM | 108 | 115 | 83.4
RPMI 5 mM glucose + 10% FBS, 1.71 µM | 107 | 113 | 77.3
RPMI 5 mM glucose + 10% FBS, 5.12 µM | 96.3 | 82.2 | 58.4
RPMI 5 mM glucose + 10% FBS, 15.4 µM | 71.8 | 68.9 | 29.5
RPMI 5 mM glucose + 10% FBS, 46.1 µM | 56.2 | 21.4 | 13.6
RPMI 5 mM glucose + 10% dialyzed FBS, 0.000781 µM | 114 | – | 112
RPMI 5 mM glucose + 10% dialyzed FBS, 0.00234 µM | 116 | – | 124
RPMI 5 mM glucose + 10% dialyzed FBS, 0.00702 µM | 107 | – | 114
RPMI 5 mM glucose + 10% dialyzed FBS, 0.0211 µM | 124 | – | 114
RPMI 5 mM glucose + 10% dialyzed FBS, 0.0632 µM | 118 | – | 97.1
RPMI 5 mM glucose + 10% dialyzed FBS, 0.19 µM | 119 | – | 113
RPMI 5 mM glucose + 10% dialyzed FBS, 0.569 µM | 119 | – | 120
RPMI 5 mM glucose + 10% dialyzed FBS, 1.71 µM | 110 | – | 116
RPMI 5 mM glucose + 10% dialyzed FBS, 5.12 µM | 83 | – | 91.5
RPMI 5 mM glucose + 10% dialyzed FBS, 15.4 µM | 64.8 | – | 33.3
RPMI 5 mM glucose + 10% dialyzed FBS, 46.1 µM | 47.4 | – | 28.3

AUC of viability dose-response curve
Conditions | HPLM + 10% dialyzed FBS | RPMI 5 mM glucose + 10% FBS | RPMI 5 mM glucose + 10% dialyzed FBS
NOMO1 [4] | 391 | 429 | 424
P12-Ichikawa [3] | 419 | 415 | 400

FC1=CC=C(C=C1)N2/C=C\C=C(C(=O)NC3=CC=C(OC4=C5C=C[NH]C5=NC=C4)C(=C3)F)/C2=O
cell viability [%]
Conditions | NOMO1 [1] | P12-Ichikawa [2] | SEM cells
HPLM + 10% dialyzed FBS, 0.000781 µM | 97 | 99 | 92.6
HPLM + 10% dialyzed FBS, 0.00234 µM | 117 | 111 | 101
HPLM + 10% dialyzed FBS, 0.00702 µM | 106 | 107 | 104
HPLM + 10% dialyzed FBS, 0.0211 µM | 108 | 114 | 112
HPLM + 10% dialyzed FBS, 0.0632 µM | 104 | 117 | 106
HPLM + 10% dialyzed FBS, 0.19 µM | 144 | 118 | 109
HPLM + 10% dialyzed FBS, 0.569 µM | 114 | 122 | 115
HPLM + 10% dialyzed FBS, 1.71 µM | 124 | 112 | 107
HPLM + 10% dialyzed FBS, 5.12 µM | 119 | 114 | 99.9
HPLM + 10% dialyzed FBS, 15.4 µM | 122 | 123 | 77.3
HPLM + 10% dialyzed FBS, 46.1 µM | 112 | 115 | 75.4
RPMI 5 mM glucose + 10% FBS, 0.000781 µM | 104 | 104 | 72.6
RPMI 5 mM glucose + 10% FBS, 0.00234 µM | 111 | 111 | 69.9
RPMI 5 mM glucose + 10% FBS, 0.00702 µM | 109 | 121 | 65.1
RPMI 5 mM glucose + 10% FBS, 0.0211 µM | 110 | 112 | 76
RPMI 5 mM glucose + 10% FBS, 0.0632 µM | 112 | 132 | 67.1
RPMI 5 mM glucose + 10% FBS, 0.19 µM | 125 | 119 | 68.1
RPMI 5 mM glucose + 10% FBS, 0.569 µM | 116 | 128 | 73
RPMI 5 mM glucose + 10% FBS, 1.71 µM | 138 | 122 | 71.6
RPMI 5 mM glucose + 10% FBS, 5.12 µM | 115 | 127 | 60.5
RPMI 5 mM glucose + 10% FBS, 15.4 µM | 101 | 119 | 46.9
RPMI 5 mM glucose + 10% FBS, 46.1 µM | 120 | 111 | 40
RPMI 5 mM glucose + 10% dialyzed FBS, 0.000781 µM | 96.1 | 109 | 101
RPMI 5 mM glucose + 10% dialyzed FBS, 0.00234 µM | 92.7 | 107 | 96.9
RPMI 5 mM glucose + 10% dialyzed FBS, 0.00702 µM | 94.5 | 114 | 98.7
RPMI 5 mM glucose + 10% dialyzed FBS, 0.0211 µM | 107 | 125 | 111
RPMI 5 mM glucose + 10% dialyzed FBS, 0.0632 µM | 108 | 117 | 119
RPMI 5 mM glucose + 10% dialyzed FBS, 0.19 µM | 108 | 124 | 111
RPMI 5 mM glucose + 10% dialyzed FBS, 0.569 µM | 102 | 125 | 121
RPMI 5 mM glucose + 10% dialyzed FBS, 1.71 µM | 124 | 119 | 102
RPMI 5 mM glucose + 10% dialyzed FBS, 5.12 µM | 106 | 129 | 95.7
RPMI 5 mM glucose + 10% dialyzed FBS, 15.4 µM | 115 | 120 | 74.8
RPMI 5 mM glucose + 10% dialyzed FBS, 46.1 µM | 108 | 114 | 55.4

AUC of viability dose-response curve
Conditions | HPLM + 10% dialyzed FBS | RPMI 5 mM glucose + 10% FBS | RPMI 5 mM glucose + 10% dialyzed FBS
NOMO1 [4] | 445 | 456 | 459
P12-Ichikawa [3] | 465 | 459 | 466
